# Test results published in patent US9657110B2, “Polypeptides and use thereof” (ASTON UNIVERSITY, priority 2011, dated 2017).
# Assays:
# [1] = test system: human recombinant TG2 binding to FN and its 45 kDa and 70 kDa fragments; assay: Inhibition of purified TG2 binding to FN by TG2-derived peptides (ELISA); conditions: peptide 10 μM-1 mM, effect at higher concentrations
# Protocol: 96-well Microtitre 96-well plates were coated overnight with either full length FN (5 μg/ml), its 45 kDa (54 μg/ml) or 70 kDa (45 μg/ml) fragments, in 50 mM Tris-HCl, pH 7.4 as previously described (Verderio et al., 2003b). Wells were blocked with 3% BSA (w/v) in TBS pH 7.6. After three washes with PBS pH7.4, competitive peptides diluted in PBS, 2 mM EDTA, pH 7.4 were added to the wells at concentrations from 10 μM-1 mM and incubated for 1 h at room temperature. Wells were washed three times with PBS pH7.4 and purified human recombinant TG2 was added at a final concentration of 2 μg/ml in the presence of the different concentrations of P2 or P2s peptides and incubated for 1 h at room temperature. After three washes with PBS pH7.4 bound TG2 was measured via ELISA as introduced above. […] The treated TG2 was then detected by the ELISA assay as described above.
# [2] = test system: p-397 FAK; assay: Western blotting of p-397 FAK after cell adhesion assay; type: cell-based, human; conditions: HOB on FN, RGD, peptide 100 μg/ml
# Protocol: (§1) Cell lysates containing 50 μg of protein were dissolved in 2× Laemmli buffer (Sigma-Aldrich Ltd, Dorset, UK) and separated by SDS-PAGE. Western blotting was performed using specific primary antibodies as described above. Primary antibodies were detected using the appropriate secondary antibody conjugated to horse radish peroxidase. Detection was by chemiluminescence (Amersham ECL™ Western Blotting System, GE Healthcare, UK).
# (§2) The cell adhesion assay was carried out as previously described (Wang et al., 2010). […] Images of stained cells from non-overlapping fields of view were photographed at 20× magnification and analyzed using the imaging analysis program Scion Image (National Institute of Health). Cell attachment and spreading were quantified, and the number of cells per image was assessed as described previously (Telci et al., 2008). […] The mean number of attached cells form three wells was calculated and that of the control was considered as 100%. The mean number of attached cells (cell attachment) for each sample was then expressed as the percentage of cell attachment on FN. The mean percentage of attached cells that are spread (cell spreading) for each sample was determined separately, and the mean percentage of spread cells on FN control was expressed as 100%. […]
# [3] = test system: p-ERK1/2; assay: Western blotting of p-ERK1/2 after cell adhesion assay; type: cell-based, human; conditions: HOB on FN, RGD, peptide 100 μg/ml
# Protocol: as §1, §2
# [4] = test system: HOB cells; assay: Cell adhesion assay (attachment and spreading) on FN or TG-FN matrix with RGD or RAD peptide; type: cell-based, human; conditions: for effect on attachment and spreading of HOB cells on TG-FN in the presence of the RGD peptide: TG-FN matrix, peptide 100-300 μg/ml
# Protocol: The cell adhesion assay was carried out as previously described (Wang et al., 2010). Briefly, 96-well plastic tissue culture plates were coated with 5 μg/ml FN in 50 mM Tris-HCl, pH 7.4 at 4° C. overnight, after washing three times with 100 μl of 50 mM Tris-HCl, pH7.4, gplTG (20 μg/ml) in 2 mM EDTA in PBS, pH 7.4 was added to the wells for 1 h at 37° C. and the wells were washed three times with 50 mM Tris-HCl, pH7.4. Serum-starved (for 16 h) HOB cells with different treatments as introduced below in serum-free medium were detached by trypsinization and then treated with trypsin inhibitor. Cells were washed three times with serum free medium and seeded onto either FN or TG-FN matrix for 20-40 min. Peptides P1 or scrambled P1 (P1s), were added at concentrations between 100 μg/ml and 300 μg/ml. […] Attached cells were washed once with PBS, pH 7.4 and then fixed with 3.7% paraformaldehyde, further permeabilised with 0.1% (v/v) Triton® X-100 detergent in PBS, and co-stained with May-Grunwald and Giemsa stains as described previously (Jones et al., 1997). Images of stained cells from non-overlapping fields of view were photographed at 20× magnification and analyzed using the imaging analysis program Scion Image (National Institute of Health). Cell attachment and spreading were quantified, and the number of cells per image was assessed as described previously (Telci et al., 2008). Cell attachment on FN without peptide was considered as the control value for all the experiments unless stated otherwise. The mean number of attached cells form three wells was calculated and that of the control was considered as 100%. The mean number of attached cells (cell attachment) for each sample was then expressed as the percentage of cell attachment on FN. The mean percentage of attached cells that are spread (cell spreading) for each sample was determined separately, and the mean percentage of spread cells on FN control was expressed as 100%. The mean percentage of spread cells for each sample was then normalised against that of FN control Cell attachment on FN without the RGD peptide was considered as the control value for most of the experiments unless stated otherwise The mean number of attached cells from three wells was calculated and that of the control was considered as 100%. The mean number of attached cells (cell attachment) for each sample was then expressed as the percentage of cell attachment on FN. The mean percentage of attached cells that are spread (cell spreading) for each sample was determined separately, and the mean percentage of spread cells on the FN control was expressed as 100%. The mean percentage of spread cells for each sample was then normalised against that of FN control Cell pre-treatments included: PKCα inhibitor Go6976 (5 μM) or GK21 peptide (8 μM) for 1 h in serum-free medium prior to cell detachment; heparinase (15 mU/ml) or chondroitinase (15 mU/ml) to cells in suspension in serum free medium for 1 h. For the detection of the signalling molecules via Western blotting, the cell adhesion assay was performed in 60 mm Petri dishes and cells were collected into cell lysis buffer (Santa Cruz, UK) as described previously and pre-cleared by centrifugation at 300×g for 10 min. Western blotting was performed with specific anti-p-397 FAK or p-ERK1/2 antibodies. Membranes were stripped (Telci et al., 2008) and total FAK and ERK1/2 detected using anti-FAK and anti-ERK1/2 antibodies as listed in Table 2, while α-tubulin was used as an equal loading standard (Wang et al., 2011).
# Cell adhesion and spreading assays were performed as described above in Example 1 method ‘Cell adhesion assay’
# [5] = HOB cells on FN, RGD peptide, tested 0.01-200 μg/ml
# human recombinant TG2 binding to FN and its 45 kDa and 70 kDa fragments, sequence (P02751 291-608 limits assumed): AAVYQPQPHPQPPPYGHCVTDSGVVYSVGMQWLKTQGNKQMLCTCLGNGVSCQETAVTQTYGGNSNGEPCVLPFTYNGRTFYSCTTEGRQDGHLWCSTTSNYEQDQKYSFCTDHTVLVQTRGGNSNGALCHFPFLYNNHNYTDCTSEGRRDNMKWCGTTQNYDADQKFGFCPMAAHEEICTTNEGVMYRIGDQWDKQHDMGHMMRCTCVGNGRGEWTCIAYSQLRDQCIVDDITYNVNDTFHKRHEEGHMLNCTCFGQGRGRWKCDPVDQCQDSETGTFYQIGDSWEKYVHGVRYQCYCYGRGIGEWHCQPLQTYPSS
Sequence,inhibition of wild type TG2 binding to FN and its 45 and 70 kDa fragments [1],phosphorylation of p-FAK397 [2],phosphorylation of p-ERK1/2 [3],"effect on binding of cells to FN alone ([4]; FN matrix, 100-300 μg/ml, compared to P1s)","concentration at which compensation of RGD-induced loss of cell adhesion started [4, 5] [µg/mL]","concentration of maximum compensation of RGD-induced loss of cell adhesion [4, 5] [µg/mL]","compensatory effect on RGD-induced loss of cell adhesion after heparinase pre-treatment ([4]; HOB cells treated with heparinase 15 mU/ml (not chondroitinase), FN)","compensatory effect on RGD-induced loss of cell adhesion after syndecan-4 siRNA ([4]; HOB cells, syndecan-4 siRNA (around 50% reduction in protein expression))",effect on attachment and spreading of HOB cells on TG-FN in the presence of the RGD peptide [4]
"AEELVLERCDLELE (listed as Homo sapiens) [P2, peptide corresponding to the N-terminal end of TG2]",moderate but significant inhibition,,,,,,,,
NPKFLKNAGRDCSRRSS (listed as Homo sapiens) [P1],,paralleled by the phosphorylation of p-FAK397,paralleled by the phosphorylation of p-FAK397 and p-ERK1/2,small but significant enhancement of adhesion,5 to 10,50 to 100,abolished,comparable reduction in the compensatory effect,"small, but not significant dose-dependent negative effect"
"EECRLAEELLEDVL (Scrambed Control Peptide) [P2s, scrambled P2 peptide, reference compound]",No effect,,,,,,,,
"FNRADLKPRCGSSNKSR (Scrambled Control Peptide) [P1s, scrambled control peptide for P1, reference compound]",,not found,not found,,,,,,almost no effect
